In the METLIN SMRT retention time set (Domingo-Almenara et al. 2019) one finds RP-LC retention time data, which are given here for 80 compounds.

Molecules are shown by their SMILES.

The data set is described as follows: gradient 5% acetonitrile 3 min, to 50% in 2 min, to 85% in 15 min, held 3 min, 100 µL/min. Conditions: column: Zorbax Extend-C18 2.1 x 50 mm; eluents: water / acetonitrile, 0.1% formic acid. In short, it runs like this:
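Retention times of pure standards were taken from adduct peaks that were selected by computer and manually inspected. Over 3 months, mixtures of ~100 molecules were run by HPLC–quadrupole time-of-flight mass spectrometry in positive and negative ionization mode. The Zorbax Extend-C18 column (2.1 × 50 mm, 1.8 μm) ran at 100 μL/min in water and acetonitrile, each containing 0.1% formic acid, with 40 μL dead volume and 900 μL dwell volume.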
Take `CCn1ccc2cc(S(=O)(=O)N3CCCC(C(=O)NCCCOC)C3)ccc21` (stereo not given): the RP-LC retention time was determined as 804 s.

`CC(C)c1csc(-c2csc(S(=O)(=O)NCc3ccc(Br)cc3)c2)n1`: the RP-LC retention time amounted to 1190 s.

The compound `COc1ccc2c(c1)CCc1sc(NC(=O)c3ccc(F)cc3)nc1-2` returned an RP-LC retention time of 1140 s.

`Cc1ccccc1NC(=O)COc1cccc2c(=O)n(C)ccc12` had an RP-LC retention time of 758 s.

In turn, `O=C(Cn1ccnc1-c1ccnc(N2CCOCC2)c1)N1CCN(c2ccccc2)CC1` returned an RP-LC retention time of 639 s.

For the compound `CCOc1ccc(-c2noc(Cn3c(=O)n(C(C)CC)c(=O)c4ccccc43)n2)cc1` (stereo not given), the RP-LC retention time turned out to be 1170 s.

`CN(Cc1nc2cc(C(=O)N3CCCC3)ccc2n1C)C(=O)Nc1ccc2c(c1)OCCO2` showed an RP-LC retention time of 688 s.

For `CCOc1ccccc1N1CCN(S(=O)(=O)c2nn(C)cc2C(=O)NC2CCCC2)CC1`, the RP-LC retention time was 1030 s.

`O=C(NCCc1csc(-c2ccc(Cl)cc2)n1)C(=O)Nc1ccc2c(c1)OCCO2`: the RP-LC retention time was 1030 s.

In the case of `Cc1cccc(C(=O)N2CCC3(CC2)NC(=O)c2cc(F)ccc2N3C)c1`, the RP-LC retention time amounted to 779 s.

The compound `Cc1ccc(Nc2c(-c3cccc(Cl)c3)nc3ccccn23)cc1` registered an RP-LC retention time of 780 s.

For the compound `Cn1cnc2c(=O)oc3ccc(S(=O)(=O)N4CCN(c5ccccn5)CC4)cc3c21`, the RP-LC retention time worked out at 576 s.

For `CCN(C(=O)C(=O)c1c[nH]c2ccccc12)c1cccc(Cl)c1`, the RP-LC retention time came out at 882 s.

In turn, `CN(C)c1ccc(NS(=O)(=O)c2c(F)c(F)c(F)c(F)c2F)cc1` had an RP-LC retention time of 869 s.

With `Cc1ccccc1Nc1c(-c2ccccc2O)nc2ccc(Br)cn12`, the RP-LC retention time is 1050 s.

Regarding `COC(=O)C1=CN(CC(=O)N2CCN(c3ccccc3)CC2)S(=O)(=O)N=C1C`, the RP-LC retention time was 871 s.

As for `COc1ncc(C(=O)Nc2ccc(F)c(F)c2)c(C)n1`, the RP-LC retention time stood at 795 s.

`CC(C)NC(=O)c1ccc(OCC2CCCN(C(=O)c3ccc(F)cc3)C2)cc1` (stereo not given) came in with an RP-LC retention time of 844 s.

Take `CC(C)c1ccc(S(=O)(=O)N2CCCC2c2nc(-c3ccc(F)cc3)no2)cc1` (stereo not given): the RP-LC retention time was found to be 1260 s.

`COc1ccc(-c2nc(-c3nnn(Cc4ccccc4)c3C)no2)c(OC)c1`: the RP-LC retention time was 990 s.

The compound `O=C(NCc1ccccc1F)c1cn(-c2ccc(-c3nc(C4CC4)no3)cn2)cn1` registered an RP-LC retention time of 929 s.

As to `Cc1nn(-c2ccc(Cl)nn2)c(C)c1Cl`, the RP-LC retention time was 996 s.

As to `CCC(C)NC(=O)c1cc2n(n1)CCCN(Cc1cccc(C)c1)C2=O` (stereo not given), the RP-LC retention time is 851 s.

`Fc1cccc(/C=N/N=C/c2cccc(F)c2)c1` displayed an RP-LC retention time of 1290 s.

The compound `CCN(Cc1ccccc1)C(=O)C(=O)c1c[nH]c2ccccc12` registered an RP-LC retention time of 903 s.

Regarding `O=C(CCC1CCN(S(=O)(=O)c2ccccc2F)CC1)NC1CCS(=O)(=O)C1` (stereo not given), the RP-LC retention time was found to be 685 s.

In the case of `CN(C)CCn1nnc2cc(-c3noc(-c4ccc(F)cc4)n3)ccc21`, the RP-LC retention time came out at 651 s.

The compound `O=C(CCNc1c(-c2cccc(F)c2)nc2cnccn12)N1CCOCC1` showed an RP-LC retention time of 630 s.

`CC(C)n1c(N2CCN(C(=O)Cc3cccs3)CC2)cc(=O)n(C(C)C)c1=O`: the RP-LC retention time is 829 s.

Take `CCc1ccc(-n2nnc(C(=O)N3CCC4(CC3)OCCO4)c2-c2ccncc2)cc1`: the RP-LC retention time is 766 s.

For the compound `CC1CCN(C(=O)c2cc3c(s2)CCN(C(=O)c2ccc(Cl)cc2)C3)CC1`, the RP-LC retention time was 987 s.

Regarding `Brc1ccc(OCc2nnc3sc(CCc4ccccc4)nn23)cc1`, the RP-LC retention time was found to be 1060 s.

`CCn1nccc1-c1cccc(-c2noc(-c3ccc(OC)cc3)n2)c1` had an RP-LC retention time of 1210 s.

`CC1=NS(=O)(=O)N(Cc2ccccc2)C=C1C(=O)OCc1ccc(C(C)(C)C)cc1` gave an RP-LC retention time of 1320 s.

As for `Cc1cccc2nc(-c3ccccc3)c(Nc3ccc4c(c3)OCCO4)n12`, the RP-LC retention time turned out to be 679 s.

`CCOC(=O)N1CCN(S(=O)(=O)c2c[nH]c(=O)[nH]c2=O)CC1` yielded an RP-LC retention time of 582 s.

`CCn1c(-c2ccccc2)cc(C(N)=O)c1C` yielded an RP-LC retention time of 591 s.

As to `CCOc1ccc(-c2cc(=O)n(CC(=O)NCCn3ncccc3=O)cn2)cc1`, the RP-LC retention time came out at 614 s.

Turning to `O=C(NCCN1CCN(C(=O)c2ccc(Br)cc2)CC1)C(=O)NCc1ccco1`, the RP-LC retention time came out at 626 s.

Compound `O=C(NC1CCCC1)c1nc(Nc2ccc(F)cc2)c2ccccc2n1` gave an RP-LC retention time of 824 s.

`CC(C)c1ccc(Nc2c(-c3ccc(N(C)C)cc3)nc3ncccn23)cc1` showed an RP-LC retention time of 820 s.

Turning to `COCc1nnc(-c2ccc3c(c2)OCO3)o1`, the RP-LC retention time is 722 s.

As to `CN1CCCc2cc(C(CNC(=O)C(=O)NCc3ccccc3)N3CCCCC3)ccc21` (stereo not given), the RP-LC retention time was 746 s.

`CC(=O)Nc1cccc(N2CC(C(=O)Nc3cccc(C(F)(F)F)c3)CC2=O)c1` (stereo not given) showed an RP-LC retention time of 775 s.

In turn, `COc1ccc(-c2nc(Cn3cnc4ccccc4c3=O)no2)cc1OC` had an RP-LC retention time of 765 s.

Compound `CN(CC1(C)CCOCC1)C(=O)Cc1c(F)cccc1Cl` displayed an RP-LC retention time of 863 s.

`CCOc1cccc2c(C)nc(NC3=NCN(CCOC)CN3)nc12` came in with an RP-LC retention time of 643 s.

`CN(C)c1ccc2c(c1)CN(Cc1ccccc1C#N)CCO2`: the RP-LC retention time was 592 s.

Regarding `COc1ccc(S(=O)(=O)NCc2ccc3c(c2)CCN3C(=O)C(C)C)cc1OC`, the RP-LC retention time is 803 s.

`CCN1C(=O)c2ccccc2Oc2ccc(C(=O)NCCc3ccc(OC)c(OC)c3)cc21`: the RP-LC retention time was found to be 864 s.

The compound `COc1ccc(NC(=O)N2c3ccccc3NC3=C(C(=O)CCC3)C2c2ccco2)c(OC)c1` (stereo not given) registered an RP-LC retention time of 816 s.

Turning to `CCc1nc(OCC(=O)NCc2ccc(C)cc2)c2ccccc2n1`, the RP-LC retention time is 798 s.

`COC(=O)c1ccc(N2C=C(C#N)S(=O)(=O)c3ccc(F)cc32)cc1` gave an RP-LC retention time of 875 s.

With `Cc1noc(C)c1CN1CCCCC1c1nc(-c2ccncc2)no1` (stereo not given), the RP-LC retention time turned out to be 649 s.

As for `COc1ccc(-n2c(=O)c(C(=O)NCc3ccc4c(c3)OCO4)c(O)c3cccnc32)cc1`, the RP-LC retention time amounted to 1090 s.

Consider `CCCCN1CC(c2nc3ccccc3n2CC(=O)N(c2ccccc2)C(C)C)CC1=O` (stereo not given), for which the RP-LC retention time came out at 792 s.

In the case of `COc1ccc(OC)c(NC(=O)C2(C)Oc3cccnc3NC2=O)c1` (stereo not given), the RP-LC retention time was 746 s.

In the case of `CCN(CC)CCNc1ncnc2onc(-c3ccc(Cl)cc3)c12`, the RP-LC retention time stood at 664 s.

Compound `COc1ccccc1OCCNC(=O)C1CCc2nc(N3CCC(C)CC3)ncc2C1` (stereo not given) registered an RP-LC retention time of 776 s.

Compound `COC(=O)Cn1c(C)cc(=O)c2cccc(F)c21` came in with an RP-LC retention time of 549 s.

`CCOC(=O)Cn1c(CN(C)Cc2ccccc2)nc2c1c(=O)n(C)c(=O)n2C` came in with an RP-LC retention time of 643 s.

Compound `CC(C)CCn1nc2c(S(=O)(=O)N3CCCCCC3)cccn2c1=O` had an RP-LC retention time of 982 s.

`CCc1cc(=O)n(CC(=O)Nc2c(C)cccc2C)c(N2CCOCC2)n1` gave an RP-LC retention time of 736 s.

In turn, `CCc1noc(C2CCCCN2Cc2nc(Cc3ccccc3)no2)n1` (stereo not given) registered an RP-LC retention time of 958 s.

Consider `CCOc1cccc(-c2noc(Cn3nc(-c4ccc(OC)cc4)ccc3=O)n2)c1`, for which the RP-LC retention time is 1030 s.

For the compound `O=C1c2ccccc2C(=O)c2c1cccc2N1CCCC(CO)C1` (stereo not given), the RP-LC retention time came out at 635 s.

Turning to `CC1Cc2ccccc2N1C(=O)c1ccc(=O)n(CCC(=O)N2CCN(c3ccccn3)CC2)n1` (stereo not given), the RP-LC retention time came out at 629 s.

With `CCOc1ccc(N2C(=O)C3N=NN(Cc4nc(-c5ccc(OC(C)C)cc5)no4)C3C2=O)cc1` (stereo not given), the RP-LC retention time is 1120 s.

`Cc1ccc(CNC(=O)C2(C)Cn3nc(C(=O)NCCN(C)C)cc3C(=O)N2C)cc1` (stereo not given): the RP-LC retention time was 639 s.

As to `CS(=O)(=O)N1C[C@@H](COc2ccncc2)[C@H](c2ccccn2)C1`, the RP-LC retention time turned out to be 542 s.

On to `Cc1sc(-c2nnc(C3CC3)o2)cc1NC(=O)C1CCC1`, for which the RP-LC retention time amounted to 856 s.

`Oc1cccc(-c2nc3ncccn3c2Nc2ccc(Cl)cc2)c1` showed an RP-LC retention time of 710 s.

With `Cc1nc(-c2noc(-c3ccccc3)n2)cn1CC(=O)Nc1ccc(F)c(Cl)c1`, the RP-LC retention time is 917 s.

For the compound `CC(C)CCn1nc2c(S(=O)(=O)N3CCc4ccccc4C3)cccn2c1=O`, the RP-LC retention time was determined as 1010 s.

Compound `O=C(CCSc1ccccc1)NCCn1nc(-c2ccc(Cl)cc2)ccc1=O` showed an RP-LC retention time of 600 s.

As to `COc1ccccc1NC(=O)Cn1c(=O)n(-c2ccccc2)c(=O)c2c1cc(C)n2C`, the RP-LC retention time was 971 s.

On to `COc1ccc(CCNC(=O)CN2C(=O)NC3(CCCCC3)C2=O)cc1OC`, for which the RP-LC retention time worked out at 691 s.

For the compound `Clc1cccc(-c2nnc(-c3nc(NCc4cccnc4)c4ccccc4n3)o2)c1`, the RP-LC retention time is 705 s.

`Cc1cccc(-c2noc(C3CCCN3S(=O)(=O)c3ccc(C(C)C)cc3)n2)c1` (stereo not given) gave an RP-LC retention time of 1330 s.

Take `CCN1C(=O)C(CC(=O)NCc2ccncc2)Sc2ncccc21` (stereo not given): the RP-LC retention time stood at 558 s.
